The subject of the assay is Dendritic cells. Put plainly: Co-culture of immature dendritic cells with BCMA ADC treated NCI-H929 cells, maturation markers by flow cytometry. The assay is classed as cell-based, human. From the text: The process of immunogenic cell death can induce the production of danger molecules that lead to the activation of dendritic cells (see FIG. 1A-ICD is a special type of apoptosis often associated with the cellular release of ATP and HMGB1, and exposure of CRT at the cellular membrane. ICD induces an immune response through engagement of the antigen presentation process by dendritic cells (DCs)). […] Anti-BCMA-MMAF induced ATP release, HMGB1 release and CRT exposure only in NCI-H929, a BCMA positive MM cell line). To investigate the effect of NCI-H929 cell killing by BCMA ADC on the activation of dendritic cells, co-culture experiments were carried out with BCMA ADC treated NCI-H929 cells and immature dendritic cells (iDCs) differentiated from human monocytes in vitro with GM-CSF/IL-4 treatment. A number of dendritic cell maturation markers as well as IL-10 and IL-12p70, two major cytokines secreted by dendritic cells upon activation, were monitored in this process to assess the effect of BCMA ADC induced cell death on dendritic cell activation. Fresh, whole Human blood was obtained from three healthy donors from the Upper Providence Blood Donation Unit with syringes coated in liquid sodium heparin ([…] 10 IU/mL final concentration). Monocytes were isolated from fresh, whole human blood using the RosetteSep Monocyte Enrichment kit (Cat. #15068) and were assessed for expression of cell surface CD14 (BD Bioscience Cat. #562698) using flow cytometry. […] All cells were counted at the initiation of the co-culture and diluted with X-Vivo-15 media to a concentration of 7.5×10^5 cells/mL. […] Data for the secreted IL-10 and IL-12p70 from supernatants in the co-culture assays w analyzed in MSD Discovery Workbench v4.0.12. […] Marker expression was measured in (a) untreated (no BCMA ADC) Dendritic cells alone and (b-f) Dendritic cells that were co-cultured with (b) untreated (no BCMA ADC), (c) IgG Control (10 μg/mL), (d) 0.1, (e) 1 and (f) 10 μg/mL BCMA ADC treated (48 hours) NCI-H929 cells. […]
(In general: A flow cytometer gives signals particle by particle.)

Where [1] appears, read: three healthy donors, 24 hour co-culture, 0.1, 1, 10 μg/mL BCMA ADC.

These results are taken from US20220096650A1 (Glaxosmithkline Intellectual Property Development Limited, priority 2019, published 2022).

Take GSK2857916: the “effect of killing of NCI-H929 cells on dendritic cells” value (24 hour co-culture 1:1 with NCI-H929 cells treated 48 hours) is on record as “stimulatory effect on dendritic cells”. Under setting [1], the “CD40 cell surface expression on CD11c+ Dendritic cells” value was “increased” and the “CD83 cell surface expression on HLA-DR+ Dendritic cells” value was “increased”.
